The test system of assay [1] is iC9 suicide gene. The assay is described as follows: in vitro elimination of transduced T cells by AP1903 activation of iC9. Type of assay: cell-based. Conditions: within 24 hrs of in vitro exposure to AP1903 (20-50 nM). The protocol:
A stable producer line with a titer >10^6 per mL may be developed. The T-cell transduction efficiency may range from 30% to 40% in hypoxia (FIG. 3). Redirected T cells can eliminate CD138+ targets in coculture experiments in hypoxia and can be rapidly eliminated (>90% of transduced cells) within 24 hrs of in vitro exposure to AP1903 (20-50 nM), the small molecule dimerizer that activates the iC9 suicide gene.

The test system of assay [2] is iC9 suicide gene. The experiment in a line: in vivo elimination of hCAR.CD138 T cells by AP1903 in patients. Further details: species or system human. The following applies: within 3 hours of AP1903 administration. The text has this:
Persistence and expansion of transferred T cells are estimated using immunophenotype and real-time quantitative PCR assay (Q-PCR) in DNA extracted from PB collected at different time points after T-cell infusions. BM samples are collected at week 6 as part of the clinical evaluation of these patients. Plasma samples are collected and snap frozen at intervals to detect IL-2, IL6, IFNγ and TNFα released by T cells in vivo. One can also seek clinical evidence of antitumor activity by monitoring paraprotein levels and PC BM infiltration at 6, 12 and 24 weeks, for example. Patients are closely monitored for the occurrence of toxicity according to NCI criteria. In the case of grade III-IV toxicity, patients are treated with AP1903 to activate the iC9 gene as previously reported. The iC9 effects are quantified by measuring the loss of CAR+ circulating cells and by changes in the iC9 transgene by QPCR.
The molecular signal of the CAR (which is hypoxia independent) is detected both in PB and BM samples by week 6, even though there may be higher signal in the BM because of the accumulation of CAR T cells. The expression of the CAR by flow cytometry in T cells (which is hypoxia dependent, as it detects protein synthesis) is anticipated to be much higher in BM as compared to PB because MM BM is hypoxic. […]

Compound `CC[C@H](C(=O)N1CCCC[C@H]1C(=O)O[C@H](CCc1ccc(OC)c(OC)c1)c1cccc(OCC(=O)NCCNC(=O)COc2cccc([C@@H](CCc3ccc(OC)c(OC)c3)OC(=O)[C@@H]3CCCCN3C(=O)[C@@H](CC)c3cc(OC)c(OC)c(OC)c3)c2)c1)c1cc(OC)c(OC)c(OC)c1` [AP1903] came in with a transduced cells eliminated in the assay on iC9 suicide gene [1] of more than 90%. Further, the hCAR.CD138T eliminated in the assay with iC9 suicide gene [2] is recorded as more than 90%.

The values are drawn from patent publication US20160017048A1, “TARGETING CD138 IN CANCER” (priority 2013, published 2016).
